Tested on: 242566-281-R-J2-PDC complex spheroid viability
Test: Anticancer human tumor 242566-281-R-J2-PDC patient-derived pancreatic carcinoma cell line growth inhibition [RAS]
Settings: for IC50: curve of first compound; for viability, T/C: stronger effect = lower value
Method in brief: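 Agents were tested in combination matrices in half-log decrements from a top concentration at or near clinical Cmax (10 microM if undetermined). Targets were multi-cell spheroids of tumour lines plus HUVEC and MSC stromal cells.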

[1] = second compound 0.0316 µM, first compound 0.0316 µM
[2] = second compound 0.0316 µM, first compound 0.1 µM
[3] = second compound 0.0316 µM, first compound 0.316 µM
[4] = second compound 0.0316 µM, first compound 1 µM
[5] = second compound 0.1 µM, first compound 0.0316 µM
[6] = second compound 0.1 µM, first compound 0.1 µM
[7] = second compound 0.1 µM, first compound 0.316 µM
[8] = second compound 0.1 µM, first compound 1 µM
[9] = second compound 0.316 µM, first compound 0.0316 µM
[10] = second compound 0.316 µM, first compound 0.1 µM
[11] = second compound 0.316 µM, first compound 0.316 µM
[12] = second compound 0.316 µM, first compound 1 µM
[13] = second compound 1 µM, first compound 0.0316 µM
[14] = second compound 1 µM, first compound 0.1 µM
[15] = second compound 1 µM, first compound 0.316 µM
[16] = second compound 1 µM, first compound 1 µM
[17] = second compound 3.16 µM, first compound 0.0316 µM
[18] = second compound 3.16 µM, first compound 0.1 µM
[19] = second compound 3.16 µM, first compound 0.316 µM
[20] = second compound 3.16 µM, first compound 1 µM
[21] = second compound 10 µM, first compound 0.0316 µM
[22] = second compound 10 µM, first compound 0.1 µM
[23] = second compound 10 µM, first compound 0.316 µM
[24] = second compound 10 µM, first compound 1 µM
[25] = second compound 0.0316 µM, first compound 0.000949 µM
[26] = second compound 0.0316 µM, first compound 0.003 µM
[27] = second compound 0.0316 µM, first compound 0.00949 µM
[28] = second compound 0.0316 µM, first compound 0.03 µM
[29] = second compound 0.0316 µM, first compound 0.0949 µM
[30] = second compound 0.0316 µM, first compound 0.3 µM
[31] = second compound 0.1 µM, first compound 0.000949 µM
[32] = second compound 0.1 µM, first compound 0.003 µM
[33] = second compound 0.1 µM, first compound 0.00949 µM
[34] = second compound 0.1 µM, first compound 0.03 µM
[35] = second compound 0.1 µM, first compound 0.0949 µM
[36] = second compound 0.1 µM, first compound 0.3 µM
[37] = second compound 0.316 µM, first compound 0.000949 µM
[38] = second compound 0.316 µM, first compound 0.003 µM
[39] = second compound 0.316 µM, first compound 0.00949 µM
[40] = second compound 0.316 µM, first compound 0.03 µM
[41] = second compound 0.316 µM, first compound 0.0949 µM
[42] = second compound 0.316 µM, first compound 0.3 µM
[43] = second compound 1 µM, first compound 0.000949 µM
[44] = second compound 1 µM, first compound 0.003 µM
[45] = second compound 1 µM, first compound 0.00949 µM
[46] = second compound 1 µM, first compound 0.03 µM
[47] = second compound 1 µM, first compound 0.0949 µM
[48] = second compound 1 µM, first compound 0.3 µM
[49] = second compound 3.16 µM, first compound 0.000949 µM
[50] = second compound 3.16 µM, first compound 0.003 µM
[51] = second compound 3.16 µM, first compound 0.00949 µM
[52] = second compound 3.16 µM, first compound 0.03 µM
[53] = second compound 3.16 µM, first compound 0.0949 µM
[54] = second compound 3.16 µM, first compound 0.3 µM
[55] = second compound 10 µM, first compound 0.000949 µM
[56] = second compound 10 µM, first compound 0.003 µM
[57] = second compound 10 µM, first compound 0.00949 µM
[58] = second compound 10 µM, first compound 0.03 µM
[59] = second compound 10 µM, first compound 0.0949 µM
[60] = second compound 10 µM, first compound 0.3 µM
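Note: spheroids exposed to compound for 7 days before readout.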
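Throughout, for viability, T/C: 100% = DMSO vehicle control wells.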

## C=CC(=O)N1CCN(c2nc(OCC3CCCN3C)nc3c(F)c(-c4nc(N)cc(C)c4C(F)(F)F)c(Cl)cc23)C(C)C1 (stereo not drawn) + C#Cc1c(F)ccc2cc(O)cc(-c3ncc4c(N5CC6CCC(C5)N6)nc(OCC56CCCN5CC(F)C6)nc4c3F)c12
Second compound 0.0316 µM
  IC50: > 1000 nM
Second compound 0.1 µM
  IC50: > 1000 nM
Second compound 0.316 µM
  IC50: > 1000 nM
Second compound 1 µM
  IC50: > 1000 nM
Second compound 3.16 µM
  IC50: 29.9 nM
Second compound 10 µM
  IC50: > 1000 nM
Second compound 0.0316 µM, first compound 0.00316 µM
  viability, T/C: 95.7%
Second compound 0.0316 µM, first compound 0.01 µM
  viability, T/C: 113%
[1]
  viability, T/C: 95.9%
[2]
  viability, T/C: 66.7%
[3]
  viability, T/C: 71.1%
[4]
  viability, T/C: 91.7%
Second compound 0.1 µM, first compound 0.00316 µM
  viability, T/C: 83.9%
Second compound 0.1 µM, first compound 0.01 µM
  viability, T/C: 90.8%
[5]
  viability, T/C: 79.9%
[6]
  viability, T/C: 57.2%
[7]
  viability, T/C: 75.3%
[8]
  viability, T/C: 76.5%
Second compound 0.316 µM, first compound 0.00316 µM
  viability, T/C: 80%
Second compound 0.316 µM, first compound 0.01 µM
  viability, T/C: 74.6%
[9]
  viability, T/C: 60.1%
[10]
  viability, T/C: 62.3%
[11]
  viability, T/C: 56.5%
[12]
  viability, T/C: 63.3%
Second compound 1 µM, first compound 0.00316 µM
  viability, T/C: 60.6%
Second compound 1 µM, first compound 0.01 µM
  viability, T/C: 61.9%
[13]
  viability, T/C: 48.4%
[14]
  viability, T/C: 50.7%
[15]
  viability, T/C: 56.1%
[16]
  viability, T/C: 61%
Second compound 3.16 µM, first compound 0.00316 µM
  viability, T/C: 56.4%
Second compound 3.16 µM, first compound 0.01 µM
  viability, T/C: 56.8%
[17]
  viability, T/C: 40.5%
[18]
  viability, T/C: 51.1%
[19]
  viability, T/C: 52.5%
[20]
  viability, T/C: 54.5%
Second compound 10 µM, first compound 0.00316 µM
  viability, T/C: 51.2%
Second compound 10 µM, first compound 0.01 µM
  viability, T/C: 53.2%
[21]
  viability, T/C: 46.8%
[22]
  viability, T/C: 48.6%
[23]
  viability, T/C: 57.3%
[24]
  viability, T/C: 53.4%

## CC(=O)OC12COC1CC(O)C1(C)C(=O)C(O)C3=C(C)C(OC(=O)C(O)C(NC(=O)OC(C)(C)C)c4ccccc4)CC(O)(C(OC(=O)c4ccccc4)C21)C3(C)C (stereo not drawn) + C#Cc1c(F)ccc2cc(O)cc(-c3ncc4c(N5CC6CCC(C5)N6)nc(OCC56CCCN5CC(F)C6)nc4c3F)c12
Second compound 0.0316 µM
  IC50: > 10000 nM
Second compound 0.1 µM
  IC50: < 31.6 nM
Second compound 0.316 µM
  IC50: < 31.6 nM
Second compound 1 µM
  IC50: < 31.6 nM
Second compound 3.16 µM
  IC50: < 31.6 nM
Second compound 10 µM
  IC50: < 31.6 nM
[1]
  viability, T/C: 62.9%
[2]
  viability, T/C: 54.2%
[3]
  viability, T/C: 55%
[4]
  viability, T/C: 37.4%
Second compound 0.0316 µM, first compound 3.16 µM
  viability, T/C: 55.3%
Second compound 0.0316 µM, first compound 10 µM
  viability, T/C: 71.7%
[5]
  viability, T/C: 54.4%
[6]
  viability, T/C: 52.1%
[7]
  viability, T/C: 42.2%
[8]
  viability, T/C: 40.9%
Second compound 0.1 µM, first compound 3.16 µM
  viability, T/C: 52.8%
Second compound 0.1 µM, first compound 10 µM
  viability, T/C: 56.9%
[9]
  viability, T/C: 45.7%
[10]
  viability, T/C: 43.1%
[11]
  viability, T/C: 30.8%
[12]
  viability, T/C: 40.6%
Second compound 0.316 µM, first compound 3.16 µM
  viability, T/C: 39.9%
Second compound 0.316 µM, first compound 10 µM
  viability, T/C: 43.6%
[13]
  viability, T/C: 37.8%
[14]
  viability, T/C: 36.4%
[15]
  viability, T/C: 36.5%
[16]
  viability, T/C: 32.3%
Second compound 1 µM, first compound 3.16 µM
  viability, T/C: 34.2%
Second compound 1 µM, first compound 10 µM
  viability, T/C: 29%
[17]
  viability, T/C: 37.1%
[18]
  viability, T/C: 26.4%
[19]
  viability, T/C: 23.6%
[20]
  viability, T/C: 30.3%
Second compound 3.16 µM, first compound 3.16 µM
  viability, T/C: 30.7%
Second compound 3.16 µM, first compound 10 µM
  viability, T/C: 23.2%
[21]
  viability, T/C: 30.2%
[22]
  viability, T/C: 26.5%
[23]
  viability, T/C: 23.4%
[24]
  viability, T/C: 25.6%
Second compound 10 µM, first compound 3.16 µM
  viability, T/C: 28.6%
Second compound 10 µM, first compound 10 µM
  viability, T/C: 28.2%

## CC1(C)CCC(Nc2ncc(C(F)(F)F)c(-c3c[nH]c4c(P(C)(C)=O)c(C#N)ccc34)n2)CN1 (stereo not drawn) + C#Cc1c(F)ccc2cc(O)cc(-c3ncc4c(N5CC6CCC(C5)N6)nc(OCC56CCCN5CC(F)C6)nc4c3F)c12
Second compound 0.0316 µM
  IC50: > 300 nM
Second compound 0.1 µM
  IC50: > 300 nM
Second compound 0.316 µM
  IC50: > 300 nM
Second compound 1 µM
  IC50: > 300 nM
Second compound 3.16 µM
  IC50: > 300 nM
Second compound 10 µM
  IC50: < 0.949 nM
[25]
  viability, T/C: 90.3%
[26]
  viability, T/C: 111%
[27]
  viability, T/C: 85.6%
[28]
  viability, T/C: 86.4%
[29]
  viability, T/C: 84.9%
[30]
  viability, T/C: 88.8%
[31]
  viability, T/C: 78.1%
[32]
  viability, T/C: 81.8%
[33]
  viability, T/C: 71.6%
[34]
  viability, T/C: 81.7%
[35]
  viability, T/C: 81.2%
[36]
  viability, T/C: 81.3%
[37]
  viability, T/C: 70.7%
[38]
  viability, T/C: 66.6%
[39]
  viability, T/C: 62.3%
[40]
  viability, T/C: 60.5%
[41]
  viability, T/C: 62.9%
[42]
  viability, T/C: 62.9%
[43]
  viability, T/C: 59.4%
[44]
  viability, T/C: 59.8%
[45]
  viability, T/C: 49.3%
[46]
  viability, T/C: 47.4%
[47]
  viability, T/C: 55.1%
[48]
  viability, T/C: 59.5%
[49]
  viability, T/C: 50.8%
[50]
  viability, T/C: 57.5%
[51]
  viability, T/C: 48.4%
[52]
  viability, T/C: 47.4%
[53]
  viability, T/C: 49.8%
[54]
  viability, T/C: 53.3%
[55]
  viability, T/C: 45.2%
[56]
  viability, T/C: 50%
[57]
  viability, T/C: 44.7%
[58]
  viability, T/C: 50.2%
[59]
  viability, T/C: 53.4%
[60]
  viability, T/C: 44.1%

## CCc1c2c(nc3ccc(O)cc13)-c1cc3c(c(=O)n1C2)COC(=O)[C@]3(O)CC + C#Cc1c(F)ccc2cc(O)cc(-c3ncc4c(N5CC6CCC(C5)N6)nc(OCC56CCCN5CC(F)C6)nc4c3F)c12
Second compound 0.0316 µM
  IC50: 31.6 nM
Second compound 0.1 µM
  IC50: 24.1 nM
Second compound 0.316 µM
  IC50: 15.1 nM
Second compound 1 µM
  IC50: 6.64 nM
Second compound 3.16 µM
  IC50: 3.3 nM
Second compound 10 µM
  IC50: 3.46 nM
[25]
  viability, T/C: 100%
[26]
  viability, T/C: 97.3%
[27]
  viability, T/C: 76.1%
[28]
  viability, T/C: 51.3%
[29]
  viability, T/C: 29.3%
[30]
  viability, T/C: 17.7%
[31]
  viability, T/C: 74.1%
[32]
  viability, T/C: 86.4%
[33]
  viability, T/C: 70.2%
[34]
  viability, T/C: 44.9%
[35]
  viability, T/C: 39.4%
[36]
  viability, T/C: 31.7%
[37]
  viability, T/C: 72.8%
[38]
  viability, T/C: 74.9%
[39]
  viability, T/C: 53%
[40]
  viability, T/C: 45%
[41]
  viability, T/C: 35.4%
[42]
  viability, T/C: 36%
[43]
  viability, T/C: 59.3%
[44]
  viability, T/C: 66%
[45]
  viability, T/C: 44.3%
[46]
  viability, T/C: 36%
[47]
  viability, T/C: 29.5%
[48]
  viability, T/C: 30.8%
[49]
  viability, T/C: 56.3%
[50]
  viability, T/C: 50.6%
[51]
  viability, T/C: 40.8%
[52]
  viability, T/C: 32.7%
[53]
  viability, T/C: 31.5%
[54]
  viability, T/C: 30.4%
[55]
  viability, T/C: 58.6%
[56]
  viability, T/C: 52.5%
[57]
  viability, T/C: 38.3%
[58]
  viability, T/C: 41%
[59]
  viability, T/C: 29.2%
[60]
  viability, T/C: 22.8%
